These results are taken from article PMC11767451, “Novel Approaches to Monitor Pharmacokinetics and Metabolism of Gemcitabine-Ibandronate Conjugate in Mice and Dogs” (Molecules, 2025).

Data set [1] can be described thus: Stability in mouse plasma (accelerated, freeze-thaw, frozen PK samples). Format: in vitro ADME. To be noted: for %-ACC, frozen PK sample stability: mouse plasma PK samples re-extracted after 1.5 years at <−70 °C; for %-ACC (% accuracy vs nominal): 3 freeze-thaw cycles (<−70 °C / bench). The protocol:
(§1) For stability testing, QC samples were prepared by spiking plasma with QC stock solutions. These stability samples were stored for the predetermined time periods before extraction (accelerated stability and freeze–thaw stability) or after extraction (autosampler stability) and were run with freshly prepared calibrator standards. For accelerated stability, samples were stored at 4 °C and at room temperature for 4 h and 24 h prior to sample extraction. […] Assay A compounds (GEM-IB and IB) were also tested at 1 h and 2 h exposed to 4 °C and at room temperature to evaluate for which duration GEM-IB is stable.
(§2) Freeze–thaw cycle stability was assessed by storing the stability samples overnight in the freezer (<−70 °C) and thawing them the next day on the bench. Once thawed, samples were placed back into the freezer. This was carried out for three freeze–thaw cycles for all compounds.
(§3) To assess the stability of study samples, PK samples were re-extracted after storage at <−70 °C for 1.5 years (see Supplementary Table S4).
(§4) Method development and validation was conducted following applicable FDA guidelines for bioanalytical assays, as considered fit for purpose. Specificity. Endogenous interferences were excluded by analysis of blank plasma from 6 different individual lots of plasma. The lower limit of quantification (LLOQ) was determined as the lowest concentration consistently achieving an accuracy better than ±20% of the nominal concentration, with imprecision ≤20%. Predefined acceptance criteria. The performance of the assay was considered acceptable if intra- and inter-day imprecision (coefficient of variance, %CV) at each concentration was ≤15%, except at the LLOQ (≤20%). Intra- and inter-day accuracy had to be ±15% of the nominal value, except at the LLOQ (±20%). Calibration curves had to have a correlation coefficient (r) of 0.99 or better. Analytical recovery and imprecision. Intra- and inter-day analytical accuracy and imprecision were tested at least at four concentration levels depending on the LLOQ for each compound. Intra-day imprecision and accuracy were determined with n = 6 per QC level. Inter-day imprecision and accuracy were measured over 3 days, with six replicates for each QC concentration (n = 18). Extraction efficiency and matrix effect. Extraction efficiency for GEM-IB and metabolites was established by comparing the signals of the analytes after the extraction of QCs (n = 6/concentrations), with the signals of the extracted blank matrix spiked with the respective concentrations of analytes after the extraction procedure. The matrix effect was determined by comparing the analyte LC-MS/MS signal after spiking of the analyte into the extracted blank matrix (matrix from 6 different individual lots, analyte concentrations as for the QC samples) with the HPLC-MS/MS signal of the same amount of analyte in neat solution [25]. Carry-over. Carry-over was assessed by injecting blank buffer samples after analysis of the highest calibrators. Carry-over was considered insignificant if there was no signal at the relevant retention times exceeding 20% of the analyte signals at the LLOQ. Stability. QC samples were freshly prepared. One set was extracted and was analyzed immediately to determine baseline signals.

The nature of data set [2]: Stability in dog plasma (accelerated, freeze-thaw, frozen PK samples). It counts as in vitro ADME. To be noted: for %-ACC, frozen PK sample stability: dog plasma PK samples re-extracted after 1.5 years at <−70 °C; for %-ACC (% accuracy vs nominal): 3 freeze-thaw cycles (<−70 °C / bench). Here is the method: as §1, §2, §3, §4
Data set [3] in a line: Autosampler stability of extracted dog plasma samples at 4 °C. It counts as physicochemical. The protocol: The stability of extracted dog and mouse plasma samples in the autosampler at 4 °C was established for 24 and 48 h. Except for GEM-IB, in mouse and dog plasma extracts, all analytes were within ±20% of the nominal enriched concentration for up to 48 h in the autosampler. GEM-IB was stable for up to 24 h under these conditions.
as §4, with “signals. Analyte stability in plasma was evaluated at two QC concentration levels (n = 3/concentration level) under different conditions: 1, 2, and 24 h at room temperature and at 4 °C. In addition, stability after extraction was determined after 24 h and 48 h at 4 °C in the autosampler and for up to 3 freeze (−70 °C)–thaw (ambient) cycles. Stability was assessed by comparing analyte concentrations with baseline (t0) concentrations. Stability was assumed when the results were within ±20% of the baseline concentrations. Long-term stability estimates were performed by re-extraction of samples used during the PK study (n = 6). Samples were initially analyzed for the PK assessment and were stored for 1.5 years (GEM-IB and IB) and 2.5 years (GEM, GEMMP, dFdU, and dFdU-MP) at <−70 °C prior to reanalysis. Stability was assessed by comparing analyte concentrations with the initial assessments. Stability was acceptable when the results were within ±20% of the baseline concentrations and the percent standard deviation (%-SD) was below 25%.” for “signals.”

For data set [4] the following is noted: cited from earlier work.
Details of data set [5]: method as in PMID 33744463. To be noted: (enriched) mouse plasma; cited from earlier work.
Data set [6] in a line: Stability in mouse plasma (accelerated, freeze-thaw, frozen PK samples). Format: in vitro ADME. To be noted: mouse plasma PK samples re-extracted after 2.5 years at <−70 °C.
Data set [7] can be described thus: Stability in dog plasma (accelerated, freeze-thaw, frozen PK samples). Format: in vitro ADME. Conditions: dog plasma PK samples re-extracted after 2.5 years at <−70 °C.

Where two headings read alike, the source gives them in different places.

As for `Nc1ccn([C@@H]2O[C@H](CO)[C@@H](O)C2(F)F)c(=O)n1` [GEM, gemcitabine], the figures for the “%-ACC, frozen PK sample stability” value in data set [1] and in data set [2] were 94.2% ± 11.8 and 90.4% ± 23.9, respectively. Further, the “%-ACC (% accuracy vs nominal)” value in data set [1] (mouse plasma) is on record as 103.4%; in data set [2] (dog plasma) it was 103.4%; in data set [3] (24 hours autosampler 4 °C), 100.7%; in data set [3] (48 hours autosampler 4 °C), 106.8%. Also, the “%-ACC (percent mean accuracy vs nominal)” value in data set [1] (mouse plasma, 4 hours 4°C) is listed as 94.5%; in data set [1] (mouse plasma, 4 hours RT), 89.3%; in data set [1] (mouse plasma, 24 hours 4°C) it was 87.9%; in data set [1] (mouse plasma, 24 hours RT), 91.0%; in data set [2] (dog plasma, 4 hours 4°C), 102.7%; in data set [2] (dog plasma, 4 hours RT) it was 101.7%. The “%-ACC (percent mean accuracy vs nominal)” value in data set [2] (dog plasma, 24 hours 4°C) is 94.8%; in data set [2] (dog plasma, 24 hours RT), 95.4%. In addition, in data set [4] (−70 °C), the “duration stable in human plasma” value is listed as “up to 30 days”. For the same compound, in data set [5], the “duration stable in mouse plasma” value is reported as “up to 42 days”.

`CCCCCN(C)CCC(O)(P(=O)(O)O)P(=O)(O)O` [IB, ibandronate]: the “%-ACC (% accuracy vs nominal)” value in data set [1] (mouse plasma) is 94.5%; in data set [2] (dog plasma) it was 106.5%; in data set [3] (24 hours autosampler 4 °C) it was 111.2%; in data set [3] (48 hours autosampler 4 °C), 107.7%. The “%-ACC (percent mean accuracy vs nominal)” value in data set [1] (mouse plasma, 2 hours 4°C / on ice (IB and GEM-IB, footnote)) was 97.0%; in data set [1] (mouse plasma, 2 hours RT (IB and GEM-IB, footnote)), 106.4%; in data set [1] (mouse plasma, 24 hours 4°C), 99.7%; in data set [1] (mouse plasma, 24 hours RT) it was 101.7%; in data set [2] (dog plasma, 2 hours 4°C (IB and GEM-IB, footnote)), 99.3%; in data set [2] (dog plasma, 2 hours RT (IB and GEM-IB, footnote)), 101.0%. For the same compound, the “%-ACC (percent mean accuracy vs nominal)” value in data set [2] (dog plasma, 24 hours 4°C) was 108.8%; in data set [2] (dog plasma, 24 hours RT), 118.5%. The “accelerated stability, result in words” value in data set [1] (mouse plasma, up to 24 h at 4 °C / on ice and room temperature) is on record as “stable”; in data set [2] (dog plasma, up to 24 h at 4 °C / on ice and room temperature), “stable”. Moreover, the “freeze–thaw stability, result in words” value in data set [1] (one and two freeze–thaw cycles, matrix not stated, presumably mouse plasma) is “stable”. Further, the “duration stable in human plasma” value in data set [4] (−20 °C) was “up to 4 months”.

In the case of `O=c1ccn([C@@H]2O[C@H](CO)[C@@H](O)C2(F)F)c(=O)[nH]1` [dFdU, 2′,2′-difluoro-2′-deoxyuridine], the “%-ACC, frozen PK sample stability” value was “failed the criteria” in data set [1], “failed the criteria” in data set [2], 71.5% in data set [6] and 63.4% in data set [7]. The “%-ACC (% accuracy vs nominal)” value in data set [1] (mouse plasma) is listed as 109.5%; in data set [2] (dog plasma), 109.5%; in data set [3] (24 hours autosampler 4 °C) it was 99.0%; in data set [3] (48 hours autosampler 4 °C), 102.0%. Further, the “%-ACC (percent mean accuracy vs nominal)” value in data set [1] (mouse plasma, 4 hours 4°C) was found to be 84.5%; in data set [1] (mouse plasma, 4 hours RT), 83.8%; in data set [1] (mouse plasma, 24 hours 4°C), 87.0%; in data set [1] (mouse plasma, 24 hours RT), 85.2%; in data set [2] (dog plasma, 4 hours 4°C), 100.5%; in data set [2] (dog plasma, 4 hours RT) it was 101.3%. The “%-ACC (percent mean accuracy vs nominal)” value in data set [2] (dog plasma, 24 hours 4°C) is on record as 105.3%; in data set [2] (dog plasma, 24 hours RT), 98.4%. The “duration stable in mouse plasma” value in data set [5] is recorded as “up to 42 days”.
